Read-outs that look alike come from different tables or passages of the source.
Test system: cancer cell lines from the cancer cell line encyclopedia (CCLE)
Experiment: Cell line profiling (CLiP) proliferation experiment
Assay type: cell-based
Settings: Homo sapiens; for EC50: read-out: Inflection Point; for IC50: read-out: Crossing Point
Experimental: Compound profiling experiment and data analysis was performed as previously described. Data was imported and plotted using the Tibco Spotfire DXP application. Lines were categorized as sensitive, intermediate and refractory as follows: Amax<-40 & Inflection Point <2 ~ Sensitive, Amax>-20 & Inflection Point >10 ~ Refractory, all else were called Intermediate. Cancer Cell line HG-U133 Plus 2 data was processed and normalized as described. […] Five sets of refractory cell lines were generated from the pool of refractory cell lines trying to match the lineage composition of the set of sensitive cell lines. The limma package was used as previously described to perform the statistical comparison.

[1] = MKN-74, cell line MKN74 (stomach)
[2] = MM1.S, cell line MM1-S (haematopoietic_and_lymphoid_tissue)
[3] = MOLM-13, cell line MOLM-13 (haematopoietic_and_lymphoid_tissue)
[4] = MOLP-8, cell line MOLP-8 (haematopoietic_and_lymphoid_tissue)
[5] = MOLT-16, cell line MOLT-16 (haematopoietic_and_lymphoid_tissue)
[6] = MONO-MAC-6, cell line MONO-MAC-6 (haematopoietic_and_lymphoid_tissue)
[7] = MV4-11, cell line MV-4-11 (haematopoietic_and_lymphoid_tissue)
[8] = NCI-H82, NCI-H82, lung, small_cell_carcinoma
[9] = NCI-H441, NCI-H441, lung, adenocarcinoma
[10] = NCI-H647, NCI-H647, lung, mixed_adenosquamous_carcinoma
[11] = NCI-H650, NCI-H650, lung, bronchioloalveolar_adenocarcinoma
[12] = NCI-H716, NCI-H716, large_intestine, adenocarcinoma
[13] = NCI-H810, NCI-H810, lung, large_cell_carcinoma
[14] = NCI-H1092, cell line NCI-H1092 (lung)
[15] = NCI-H1299, cell line NCI-H1299 (lung)
[16] = NCI-H1563, cell line NCI-H1563 (lung)
[17] = NCI-H1581, cell line NCI-H1581 (lung)

Q: How did the EC50 (MIA PaCa-2, cell line MIA PaCa-2 (pancreas)) turn out when `CC(C)[C@@]12C[C@@H](O)[C@@](C)(O1)[C@@H]1CC[C@@H](C)[C@H]1[C@@H]2OC(=O)/C=C/c1ccccc1` [Englerin B] was run?
A: 11.3 µM

Q: And the IC50 (MKN-1, cell line MKN1 (stomach))?
A: > 30 µM

Q: And the IC50 (MKN-1, cell line MKN1)?
A: > 30 µM

Q: And the IC50 (MKN-7, MKN7 (stomach))?
A: > 30 µM

Q: What about the IC50 (MKN-7, cell line MKN7 (stomach)) of the same molecule?
A: > 30 µM

Q: What about the IC50 (MKN-45, MKN-45 (stomach)) of the same molecule?
A: > 30 µM

Q: What about the IC50 (MKN-45, cell line MKN-45 (stomach)) of the same molecule?
A: > 30 µM

Q: What about the IC50 [1] of the same molecule?
A: 27.5 µM

Q: What about the EC50 [1] of the same molecule?
A: 27.5 µM

Q: And the IC50 [2]?
A: > 30 µM

Q: And the EC50 [2]?
A: 25.6 µM

Q: And the IC50 (MM1.S, cell line MM1-S)?
A: > 30 µM

Q: And the EC50 (MOLM-13, MOLM-13 (haematopoietic_and_lymphoid_tissue))?
A: 13.1 µM

Q: And the IC50 [3]?
A: 13.4 µM

Q: What about the EC50 [3] of the same molecule?
A: 13.1 µM

Q: And the IC50 [4]?
A: 16.6 µM

Q: And the EC50 [4]?
A: 12.1 µM

Q: And the IC50 (MOLP-8, cell line MOLP-8)?
A: 16.6 µM

Q: And the IC50 [5]?
A: 23.3 µM

Q: What about the EC50 [5] of the same molecule?
A: 23.3 µM

Q: What about the IC50 [6] of the same molecule?
A: 18.4 µM

Q: What about the EC50 [6] of the same molecule?
A: 18.4 µM

Q: And the IC50 (MSTO-211H, cell line MSTO-211H (pleura))?
A: 27.7 µM

Q: What about the IC50 (MV4-11, MV-4-11 cells) of the same molecule?
A: 11.4 µM

Q: What about the EC50 (MV4-11, MV-4-11 cells) of the same molecule?
A: 11.4 µM

Q: What about the IC50 [7] of the same molecule?
A: 11.4 µM

Q: What about the EC50 [7] of the same molecule?
A: 11.4 µM

Q: And the IC50 (Malme-3M, Malme-3M (skin))?
A: > 30 µM

Q: What about the IC50 (Malme-3M, Malme-3M cells) of the same molecule?
A: > 30 µM

Q: What about the IC50 (Maver1, MAVER-1 (haematopoietic_and_lymphoid_tissue)) of the same molecule?
A: 13.2 µM

Q: What about the IC50 (MeWo, cell line MeWo (skin)) of the same molecule?
A: 26.2 µM

Q: And the EC50 (MeWo, cell line MeWo (skin))?
A: 22.6 µM

Q: What about the IC50 (NALM-6, cell line NALM-6 (haematopoietic_and_lymphoid_tissue)) of the same molecule?
A: 11.8 µM

Q: What about the IC50 (NCI-H28, NCI-H28, pleura, NS) of the same molecule?
A: 11.9 µM

Q: What about the EC50 (NCI-H28, NCI-H28, pleura, NS) of the same molecule?
A: 10.5 µM

Q: And the IC50 [8]?
A: 19.6 µM

Q: And the EC50 [8]?
A: 19.6 µM

Q: What about the IC50 (NCI-H82, NCI-H82 cells) of the same molecule?
A: 19.6 µM

Q: What about the EC50 (NCI-H82, NCI-H82 cells) of the same molecule?
A: 19.6 µM

Q: And the IC50 (NCI-H146, NCI-H146 cells)?
A: > 30 µM

Q: What about the IC50 (NCI-H146, cell line NCI-H146 (lung)) of the same molecule?
A: > 30 µM

Q: And the IC50 (NCI-H226, NCI-H226, lung, squamous_cell_carcinoma)?
A: > 30 µM

Q: What about the IC50 (NCI-H226, cell line NCI-H226) of the same molecule?
A: > 30 µM

Q: What about the IC50 (NCI-H358, NCI-H358, lung, bronchioloalveolar_adenocarcinoma) of the same molecule?
A: 22.8 µM

Q: And the IC50 [9]?
A: > 30 µM

Q: And the EC50 [9]?
A: 12.7 µM

Q: And the IC50 (NCI-H441, cell line NCI-H441)?
A: > 30 µM

Q: What about the IC50 (NCI-H460, NCI-H460, lung, large_cell_carcinoma) of the same molecule?
A: > 30 µM

Q: What about the IC50 (NCI-H460, cell line NCI-H460) of the same molecule?
A: > 30 µM

Q: What about the IC50 (NCI-H520, NCI-H520, lung, squamous_cell_carcinoma) of the same molecule?
A: > 30 µM

Q: And the IC50 (NCI-H520, NCI-H520 cells)?
A: > 30 µM

Q: What about the IC50 (NCI-H596, NCI-H596, lung, mixed_adenosquamous_carcinoma) of the same molecule?
A: > 30 µM

Q: And the IC50 (NCI-H596, NCI-H596 cells)?
A: > 30 µM

Q: What about the IC50 [10] of the same molecule?
A: 15 µM

Q: What about the EC50 [10] of the same molecule?
A: 15 µM

Q: And the IC50 [11]?
A: 15.8 µM

Q: And the EC50 [11]?
A: 15.8 µM

Q: And the IC50 (NCI-H650, NCI-H650 cells)?
A: 15.8 µM

Q: What about the EC50 (NCI-H650, NCI-H650 cells) of the same molecule?
A: 15.8 µM

Q: What about the IC50 (NCI-H661, NCI-H661, lung, large_cell_carcinoma) of the same molecule?
A: > 30 µM

Q: What about the IC50 (NCI-H661, NCI-H661 cells) of the same molecule?
A: > 30 µM

Q: And the IC50 [12]?
A: 29.8 µM

Q: And the EC50 [12]?
A: 21.4 µM

Q: What about the EC50 (NCI-H716, NCI-H716 cells) of the same molecule?
A: 21.4 µM

Q: And the IC50 (NCI-H727, NCI-H727, lung, NS)?
A: > 30 µM

Q: And the IC50 (NCI-H727, cell line NCI-H727)?
A: > 30 µM

Q: And the IC50 [13]?
A: 26.6 µM

Q: What about the EC50 [13] of the same molecule?
A: 21.1 µM

Q: What about the IC50 (NCI-H838, NCI-H838, lung, adenocarcinoma) of the same molecule?
A: > 30 µM

Q: What about the IC50 (NCI-H838, NCI-H838 cells) of the same molecule?
A: > 30 µM

Q: And the IC50 (NCI-H1048, cell line NCI-H1048 (lung))?
A: 4.81 µM

Q: What about the IC50 [14] of the same molecule?
A: > 30 µM

Q: And the EC50 [14]?
A: 3.48 µM

Q: What about the IC50 (NCI-H1092, cell line NCI-H1092) of the same molecule?
A: > 30 µM

Q: What about the IC50 [15] of the same molecule?
A: 13 µM

Q: And the EC50 [15]?
A: 11.3 µM

Q: And the IC50 (NCI-H1355, cell line NCI-H1355 (lung))?
A: 10.7 µM

Q: And the IC50 (NCI-H1437, NCI-H1437 cells)?
A: > 30 µM

Q: And the IC50 (NCI-H1437, cell line NCI-H1437 (lung))?
A: > 30 µM

Q: What about the IC50 [16] of the same molecule?
A: > 30 µM

Q: What about the EC50 [16] of the same molecule?
A: 9.9 µM

Q: And the IC50 (NCI-H1563, cell line NCI-H1563)?
A: > 30 µM

Q: And the IC50 (NCI-H1573, cell line NCI-H1573 (lung))?
A: 1.5 µM

Q: And the EC50 (NCI-H1581, NCI-H1581 cells)?
A: 15.4 µM

Q: And the IC50 [17]?
A: 14.7 µM

Q: And the EC50 [17]?
A: 15.4 µM

Q: What about the IC50 (NCI-H1623, cell line NCI-H1623 (lung)) of the same molecule?
A: > 30 µM

Q: And the IC50 (NCI-H1623, cell line NCI-H1623)?
A: > 30 µM

Q: What about the IC50 (NCI-H1650, NCI-H1650 (lung)) of the same molecule?
A: 26.2 µM

Q: What about the IC50 (NCI-H1650, cell line NCI-H1650 (lung)) of the same molecule?
A: 26.2 µM

Q: And the IC50 (NCI-H1651, NCI-H1651 cells)?
A: > 30 µM

Q: What about the IC50 (NCI-H1651, cell line NCI-H1651 (lung)) of the same molecule?
A: > 30 µM
